ChEMBL document CHEMBL1201862, “PubChem BioAssay data set” (2004)
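Where inhibition never reached the appropriate level, the endpoint shown equals the highest concentration tested. Otherwise, values were interpolated linearly from a five-concentration, 48-hour dose response in 96-well plates. The concentration for 50% growth inhibition is given as GI50.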 The source made the active and inactive calls. Cut-off read from the data, not from the text of the source: active = GI50 up to about 1.1 µM and inactive = higher.

Experiments:
Experiment in all cases: growth of human tumour cells (NCI), 48 h
786-0 = system: 786-0
COLO 205 = system: COLO 205
EKVX = system: EKVX
HCT-116 = system: HCT-116
HCT-15 = system: HCT-15
HT-29 = system: HT-29
MCF7 = system: MCF7
MDA-MB-435 = system: MDA-MB-435
MOLT-4 = system: MOLT-4
NCI-H226 = system: NCI-H226
NCI-H23 = system: NCI-H23
NCI-H460 = system: NCI-H460
NCI-H522 = system: NCI-H522
OVCAR-5 = system: OVCAR-5
SK-OV-3 = system: SK-OV-3
SNB-75 = system: SNB-75
UACC-257 = system: UACC-257
UO-31 = system: UO-31
A549 = system: A549
BT-549 = system: BT-549

SMILES | GI50 (786-0) | GI50 (COLO 205) | GI50 (EKVX) | GI50 (HCT-116) | GI50 (HCT-15) | GI50 (HT-29) | GI50 (MCF7) | GI50 (MDA-MB-435) | GI50 (MOLT-4) | GI50 (NCI-H226) | GI50 (NCI-H23) | GI50 (NCI-H460) | GI50 (NCI-H522) | GI50 (OVCAR-5) | GI50 (SK-OV-3) | GI50 (SNB-75) | GI50 (UACC-257) | GI50 (UO-31) | GI50 (A549) | GI50 (BT-549)
c1ccc(-c2cc(-c3cccs3)c(-c3cccs3)s2)cc1 | 50 µM (inactive) | 47.3 µM (inactive) | 81.8 µM (inactive) | 19.6 µM (inactive) | 22.8 µM | 55.7 µM (inactive) | 16.6 µM (inactive) | 27.1 µM (inactive) | 21.2 µM (inactive) | > 100 µM (inactive) | 19.1 µM (inactive) | 56.8 µM (inactive) | 26.5 µM (inactive) | > 100 µM (inactive) | > 100 µM (inactive) | 20 µM (inactive) | 56.8 µM (inactive) | 26.2 µM (inactive) | – | –
O=C1CCCC2=C1CC1=C(CCCC1=O)N2c1cccc([N+](=O)[O-])c1 | > 100 µM (inactive) | – | > 100 µM (inactive) | – | > 100 µM | > 100 µM (inactive) | 64 µM (inactive) | – | > 100 µM (inactive) | > 100 µM (inactive) | > 100 µM (inactive) | > 100 µM (inactive) | – | > 100 µM (inactive) | > 100 µM (inactive) | > 100 µM (inactive) | – | > 100 µM (inactive) | > 100 µM (inactive) | > 100 µM (inactive)
O=C1/C(=C/c2cccs2)NC(=S)N1CN1CCOCC1 | > 100 µM (inactive) | > 100 µM (inactive) | > 100 µM (inactive) | > 100 µM (inactive) | > 100 µM | > 100 µM (inactive) | > 100 µM (inactive) | > 100 µM (inactive) | > 100 µM (inactive) | > 100 µM (inactive) | > 100 µM (inactive) | – | – | > 100 µM (inactive) | > 100 µM (inactive) | > 100 µM (inactive) | 29 µM (inactive) | > 100 µM (inactive) | > 100 µM (inactive) | –
COc1cc(C2(C)SCCCS2)c(I)c(OC)c1OC | > 100 µM (inactive) | > 100 µM (inactive) | > 100 µM (inactive) | > 100 µM (inactive) | > 100 µM | > 100 µM (inactive) | – | – | > 100 µM (inactive) | > 100 µM (inactive) | > 100 µM (inactive) | > 100 µM (inactive) | > 100 µM (inactive) | > 100 µM (inactive) | > 100 µM (inactive) | > 100 µM (inactive) | > 100 µM (inactive) | > 100 µM (inactive) | > 100 µM (inactive) | –
NN/C(=N\c1ccc(Cl)cc1)NS(=O)(=O)c1ccc(S(=O)(=O)c2ccccc2)s1 | 21.4 µM (inactive) | 17 µM (inactive) | 11 µM (inactive) | 14.8 µM (inactive) | 22 µM | 18.6 µM (inactive) | 22.2 µM (inactive) | – | 9.16 µM (inactive) | 40.6 µM (inactive) | 20.4 µM (inactive) | 17.2 µM (inactive) | – | 37.6 µM (inactive) | 71.9 µM (inactive) | – | 18 µM (inactive) | 23.7 µM (inactive) | 20.1 µM (inactive) | 26.4 µM (inactive)
O=C(O)C1(c2ccccc2)CCCNCC1 (configuration not stated) | > 100 µM (inactive) | > 100 µM (inactive) | > 100 µM (inactive) | > 100 µM (inactive) | > 100 µM | > 100 µM (inactive) | – | – | > 100 µM (inactive) | > 100 µM (inactive) | > 100 µM (inactive) | > 100 µM (inactive) | > 100 µM (inactive) | > 100 µM (inactive) | > 100 µM (inactive) | > 100 µM (inactive) | > 100 µM (inactive) | > 100 µM (inactive) | > 100 µM (inactive) | –
COC(=O)CC(C)(N[S+]([O-])c1ccc(C)cc1)c1ccccc1 (configuration not stated) | > 100 µM (inactive) | > 100 µM (inactive) | > 100 µM (inactive) | > 100 µM (inactive) | > 100 µM | > 100 µM (inactive) | > 100 µM (inactive) | > 100 µM (inactive) | > 100 µM (inactive) | > 100 µM (inactive) | > 100 µM (inactive) | > 100 µM (inactive) | > 100 µM (inactive) | > 100 µM (inactive) | > 100 µM (inactive) | – | > 100 µM (inactive) | > 100 µM (inactive) | > 100 µM (inactive) | –
C=C(C)C1Cc2c(cc(OC)c3c(=O)c4cccc(O)c4oc23)O1 (configuration not stated) | 18.9 µM (inactive) | 56.9 µM (inactive) | > 100 µM (inactive) | 24.8 µM (inactive) | 47.6 µM | 67.1 µM (inactive) | 0.024 µM (active) | – | > 100 µM (inactive) | 21.2 µM (inactive) | 26 µM (inactive) | 28.6 µM (inactive) | 16.6 µM (inactive) | 72.9 µM (inactive) | 19.5 µM (inactive) | 16.3 µM (inactive) | 33 µM (inactive) | 18 µM (inactive) | 31.8 µM (inactive) | 17.9 µM (inactive)
O=C(O)c1nccnc1C(=O)O | > 100 µM (inactive) | > 100 µM (inactive) | > 100 µM (inactive) | > 100 µM (inactive) | > 100 µM | > 100 µM (inactive) | – | – | > 100 µM (inactive) | > 100 µM (inactive) | > 100 µM (inactive) | > 100 µM (inactive) | > 100 µM (inactive) | > 100 µM (inactive) | > 100 µM (inactive) | > 100 µM (inactive) | > 100 µM (inactive) | > 100 µM (inactive) | > 100 µM (inactive) | –
COP(=O)(OC)C(O)/C=C(\Cl)c1ccc(Cl)cc1 (configuration not stated) | 19.2 µM (inactive) | > 100 µM (inactive) | > 100 µM (inactive) | 18.4 µM (inactive) | 25.9 µM | > 100 µM (inactive) | 96.4 µM (inactive) | 40.7 µM (inactive) | 28.1 µM (inactive) | > 100 µM (inactive) | 21.2 µM (inactive) | > 100 µM (inactive) | 49.1 µM (inactive) | > 100 µM (inactive) | > 100 µM (inactive) | > 100 µM (inactive) | 28.4 µM (inactive) | 71 µM (inactive) | > 100 µM (inactive) | –
COC(=O)C1=C(C(=O)OC)C2(C)OC1C(=O)C21CC1 (configuration not stated) | 38.7 µM (inactive) | 24.1 µM (inactive) | 39.7 µM (inactive) | 19.8 µM (inactive) | 19.7 µM | 18.1 µM (inactive) | – | – | 19.5 µM (inactive) | > 100 µM (inactive) | 22 µM (inactive) | 24.9 µM (inactive) | 11.2 µM (inactive) | > 100 µM (inactive) | > 100 µM (inactive) | 28.9 µM (inactive) | 57.1 µM (inactive) | 79.6 µM (inactive) | > 100 µM (inactive) | –
Cn1cc(S(=O)(=O)NC(=O)Nc2ccc(Cl)cc2)c(=O)c2ccc(F)cc21 | > 100 µM (inactive) | > 100 µM (inactive) | > 100 µM (inactive) | > 100 µM (inactive) | > 100 µM | > 100 µM (inactive) | – | > 100 µM (inactive) | > 100 µM (inactive) | > 100 µM (inactive) | > 100 µM (inactive) | > 100 µM (inactive) | 32 µM (inactive) | > 100 µM (inactive) | > 100 µM (inactive) | > 100 µM (inactive) | > 100 µM (inactive) | > 100 µM (inactive) | > 100 µM (inactive) | –
CC(=O)ONC(C(=O)C(C)(C)C)C(=O)C(C)(C)C | > 100 µM (inactive) | > 100 µM (inactive) | > 100 µM (inactive) | > 100 µM (inactive) | > 100 µM | > 100 µM (inactive) | > 100 µM (inactive) | – | > 100 µM (inactive) | > 100 µM (inactive) | > 100 µM (inactive) | > 100 µM (inactive) | > 100 µM (inactive) | > 100 µM (inactive) | > 100 µM (inactive) | > 100 µM (inactive) | > 100 µM (inactive) | > 100 µM (inactive) | > 100 µM (inactive) | –
COc1ccc(C(=O)/C=C/c2ccc(OCCCOc3ccc(/C=C/C(=O)c4ccc(OC)cc4)cc3)cc2)cc1 | > 100 µM (inactive) | > 100 µM (inactive) | > 100 µM (inactive) | 24.7 µM (inactive) | > 100 µM | 56.1 µM (inactive) | > 100 µM (inactive) | > 100 µM (inactive) | > 100 µM (inactive) | > 100 µM (inactive) | – | > 100 µM (inactive) | – | > 100 µM (inactive) | > 100 µM (inactive) | 45.4 µM (inactive) | > 100 µM (inactive) | > 100 µM (inactive) | > 100 µM (inactive) | –
c1coc(-c2nccc3c2[nH]c2ccccc23)c1 | > 100 µM (inactive) | 17.5 µM (inactive) | > 100 µM (inactive) | > 100 µM (inactive) | > 100 µM | > 100 µM (inactive) | > 100 µM (inactive) | > 100 µM (inactive) | > 100 µM (inactive) | 29.1 µM (inactive) | > 100 µM (inactive) | > 100 µM (inactive) | > 100 µM (inactive) | > 100 µM (inactive) | > 100 µM (inactive) | – | > 100 µM (inactive) | – | > 100 µM (inactive) | –
O=C1c2ccccc2C(=O)C2NC(CCCCCSSCCCCCC3=NC4C(=O)c5ccccc5C(=O)C4N3)=NC12 (configuration not stated) | 28.8 µM (inactive) | – | > 100 µM (inactive) | 14.8 µM (inactive) | 40.6 µM | > 100 µM (inactive) | > 100 µM (inactive) | > 100 µM (inactive) | 3.8 µM (inactive) | > 100 µM (inactive) | 40.2 µM (inactive) | > 100 µM (inactive) | 15 µM (inactive) | > 100 µM (inactive) | 50.8 µM (inactive) | – | 64.3 µM (inactive) | 7.74 µM (inactive) | – | –
